Laboratory results reported in article PMC12473425, “Development and Evaluation of a Modified Fixed-Dose Combination Antihypertensive Tablet Containing S-Amlodipine Besylate: A Bioequivalence and Stability Study” (Pharmaceutics, 2025).

Tests used:
[1] = Compatibility study of each API alone or 1:1 (w/w) with excipients under stressed conditions, impurities by HPLC; assay type: physicochemical; conditions: 60 ± 2 °C/80 ± 5% RH
Procedure: We evaluated the compatibility between APIs and excipients, for which each API in […]® tablets was individually mixed in a 1:1 (w/w) ratio with excipients used in the formulation, as well as with commonly used tablet excipients selected based on their functional roles (e.g., diluents, binders, disintegrants, lubricants, etc.). […] The compatibility study was conducted in a temperature and humidity chamber (Sunil Eyela Co., Seongnam, Korea). Samples were withdrawn at predetermined intervals and analyzed for impurities (%). A HPLC system (Agilent Technologies, Inc. CA, USA) was used for the quantitative analysis of impurities. The column used was Symmetry C8 (100 mm × 4.6 mm, 3.5 μm, Waters Corp., Milford, CT, USA). Mobile phase A consisted of a mixture of phosphate buffer (pH 2.8) and acetonitrile at a ratio of […] prepared in a 1000 mL volumetric flask. The buffer was prepared by adjusting a 10% phosphoric acid solution to pH 2.8, filtered through a 0.45 μm membrane filter (Millipore; Billerica, MA, USA), and degassed before use. Mobile phase B consisted of a phosphate buffer (pH 2.8) and acetonitrile at a ratio of 600:1400 (v/v), which was similarly prepared and degassed before use. The mobile phases were delivered at a flow rate of 1.0 mL/min, the column temperature was maintained at 35 °C, and detection was performed at a wavelength of 250 nm.

[2] = parameters: method as in PMID 21966165; conditions: low solubility and high permeability; cited from earlier work
[3] = hydrochlorothiazide compatibility, 1w
[4] = hydrochlorothiazide compatibility, 2w
[5] = hydrochlorothiazide compatibility, 4w
[6] = hydrochlorothiazide compatibility, Initial
[7] = olmesartan medoxomil compatibility, 1w
[8] = olmesartan medoxomil compatibility, 2w
[9] = olmesartan medoxomil compatibility, 4w
[10] = olmesartan medoxomil compatibility, Initial
[11] = S-amlodipine besylate compatibility, 1w
[12] = S-amlodipine besylate compatibility, 2w
[13] = S-amlodipine besylate compatibility, 4w

In the case of `NS(=O)(=O)c1cc2c(cc1Cl)NCNS2(=O)=O` [Hydrochlorothiazide], the “Benzothiadiazine Related Compound A” value [1, 3] is reported as “<LOQ”, the “Total Impurity” value [1, 3] is reported as 0.08% and the “Unknown Impurity” value [1, 3] is reported as 0.08%. For the same compound, the “Benzothiadiazine Related Compound A” value [1, 4] was “<LOQ”, the “Total Impurity” value [1, 4] was 0.08% and the “Unknown Impurity” value [1, 4] was 0.08%. For the same compound, the “Benzothiadiazine Related Compound A” value [1, 5] was “<LOQ”, the “Total Impurity” value [1, 5] was 0.08% and the “Unknown Impurity” value [1, 5] was 0.08%. The “Benzothiadiazine Related Compound A” value [1, 6] was “<LOQ”, the “Total Impurity” value [1, 6] was 0.10% and the “Unknown Impurity” value [1, 6] was 0.10%.
In the case of `CCCc1nc(C(C)(C)O)c(C(=O)OCc2oc(=O)oc2C)n1Cc1ccc(-c2ccccc2-c2nnn[nH]2)cc1` [Olmesartan medoxomil], the “Biopharmaceutics Classification System (BCS) class” value [2] is listed as “Class II”, the RNH-8276 [1, 7] is listed as “<LOQ” and the “Total Impurity” value [1, 7] is listed as “<LOQ”. The “Unknown Impurity” value [1, 7] was “<LOQ”, the RNH-8276 [1, 8] was “<LOQ” and the “Total Impurity” value [1, 8] was “<LOQ”. For the same compound, the “Unknown Impurity” value [1, 8] was “<LOQ”, the RNH-8276 [1, 9] was “<LOQ” and the “Total Impurity” value [1, 9] was 0.05%. The “Unknown Impurity” value [1, 9] was 0.05%, the “Total Impurity” value [1, 10] was “<LOQ” and the “Unknown Impurity” value [1, 10] was “<LOQ”.
In the case of `CCOC(=O)C1=C(COCCN)NC(C)=C(C(=O)OC)[C@@H]1c1ccccc1Cl.O.O.O=S(=O)(O)c1ccccc1` [S-amlodipine besylate, S-amlodipine besylate dihydrate], the “Amlodipine Related Compound A” value [1, 11] is reported as “<LOQ”, the “Total Impurity” value [1, 11] is reported as “<LOQ” and the “Unknown Impurity” value [1, 11] is reported as “<LOQ”. For the same compound, the “Amlodipine Related Compound A” value [1, 12] was “<LOQ”, the “Total Impurity” value [1, 12] was “<LOQ” and the “Unknown Impurity” value [1, 12] was “<LOQ”. For the same compound, the “Amlodipine Related Compound A” value [1, 13] was 0.06%, the “Total Impurity” value [1, 13] was 0.30% and the “Unknown Impurity” value [1, 13] was 0.16%.
